Laboratory results taken from ChEMBL document CHEMBL1201862, “PubChem BioAssay data set” (2004).
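Results reflect a 48-hour exposure of cells in 96-well plates to compound at five concentrations. The concentration for 50% growth inhibition is given as GI50.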 Calls of active or inactive are those of the source. Rule as the data show it: active = GI50 up to about 1.1 µM and inactive = higher.

Tests used:
Experiment in all cases: inhibition of tumour cell growth, NCI panel, 48 h
[1] = tested on: 786-0
[2] = tested on: A498
[3] = tested on: A549
[4] = tested on: ACHN
[5] = tested on: CAKI-1
[6] = tested on: CCRF-CEM
[7] = tested on: COLO 205
[8] = tested on: DLD-1
[9] = tested on: DMS-114
[10] = tested on: DMS-273
[11] = tested on: EKVX
[12] = tested on: HCC 2998
[13] = tested on: HCT-116
[14] = tested on: HCT-15
[15] = tested on: HL-60
[16] = tested on: HOP-18
[17] = tested on: HOP-62
[18] = tested on: HOP-92
[19] = tested on: HT-29
[20] = tested on: IGROV-1
[21] = tested on: K562
[22] = tested on: KM-20L2
[23] = tested on: KM12
[24] = tested on: LOX IMVI
[25] = tested on: LXFL 529
[26] = tested on: M14
[27] = tested on: M19-MEL
[28] = tested on: MOLT-4
[29] = tested on: NCI-H226
[30] = tested on: NCI-H23
[31] = tested on: NCI-H460
[32] = tested on: NCI-H522
[33] = tested on: OVCAR-3
[34] = tested on: OVCAR-4
[35] = tested on: OVCAR-5
[36] = tested on: OVCAR-8
[37] = tested on: RPMI-8226
[38] = tested on: RXF 393
[39] = tested on: SF-268
[40] = tested on: SF-295
[41] = tested on: SF-539
[42] = tested on: SK-MEL-28
[43] = tested on: SK-MEL-2
[44] = tested on: SK-MEL-5
[45] = tested on: SK-OV-3
[46] = tested on: SN12C
[47] = tested on: SNB-19
[48] = tested on: SNB-78
[49] = tested on: SR
[50] = tested on: SW-620
[51] = tested on: TK-10
[52] = tested on: U-251
[53] = tested on: UACC-257
[54] = tested on: UACC-62
[55] = tested on: UO-31
[56] = tested on: XF498
[57] = tested on: Malme-3M
[58] = tested on: SNB-75

SMILES: Oc1ncnc2c1nnn2CCCn1nnc2c(O)ncnc21
- GI50 [1]: > 100 µM (inactive)
- GI50 [2]: > 100 µM (inactive)
- GI50 [3]: > 100 µM (inactive)
- GI50 [4]: > 100 µM (inactive)
- GI50 [5]: > 100 µM (inactive)
- GI50 [6]: > 100 µM (inactive)
- GI50 [7]: > 100 µM (inactive)
- GI50 [8]: > 100 µM (inactive)
- GI50 [9]: > 100 µM (inactive)
- GI50 [10]: > 100 µM (inactive)
- GI50 [11]: > 100 µM (inactive)
- GI50 [12]: > 100 µM (inactive)
- GI50 [13]: > 100 µM (inactive)
- GI50 [14]: > 100 µM
- GI50 [15]: > 100 µM (inactive)
- GI50 [16]: > 100 µM (inactive)
- GI50 [17]: > 100 µM (inactive)
- GI50 [18]: > 100 µM (inactive)
- GI50 [19]: > 100 µM (inactive)
- GI50 [20]: > 100 µM (inactive)
- GI50 [21]: > 100 µM (inactive)
- GI50 [22]: > 100 µM (inactive)
- GI50 [23]: > 100 µM (inactive)
- GI50 [24]: > 100 µM (inactive)
- GI50 [25]: > 100 µM (inactive)
- GI50 [26]: > 100 µM (inactive)
- GI50 [27]: > 100 µM (inactive)
- GI50 [28]: > 100 µM (inactive)
- GI50 [29]: > 100 µM (inactive)
- GI50 [30]: > 100 µM (inactive)
- GI50 [31]: > 100 µM (inactive)
- GI50 [32]: > 100 µM (inactive)
- GI50 [33]: > 100 µM (inactive)
- GI50 [34]: > 100 µM (inactive)
- GI50 [35]: > 100 µM (inactive)
- GI50 [36]: > 100 µM (inactive)
- GI50 [37]: > 100 µM (inactive)
- GI50 [38]: > 100 µM (inactive)
- GI50 [39]: > 100 µM (inactive)
- GI50 [40]: > 100 µM (inactive)
- GI50 [41]: > 100 µM (inactive)
- GI50 [42]: > 100 µM (inactive)
- GI50 [43]: > 100 µM (inactive)
- GI50 [44]: > 100 µM (inactive)
- GI50 [45]: > 100 µM (inactive)
- GI50 [46]: > 100 µM (inactive)
- GI50 [47]: > 100 µM (inactive)
- GI50 [48]: > 100 µM (inactive)
- GI50 [49]: > 100 µM (inactive)
- GI50 [50]: > 100 µM (inactive)
- GI50 [51]: > 100 µM (inactive)
- GI50 [52]: > 100 µM (inactive)
- GI50 [53]: > 100 µM (inactive)
- GI50 [54]: > 100 µM (inactive)
- GI50 [55]: > 100 µM (inactive)
- GI50 [56]: > 100 µM (inactive)

SMILES: CCCCSC(=CC(=O)c1cccc(C(=O)C=C(SCCCC)SCCCC)n1)SCCCC
- GI50 [1]: > 100 µM (inactive)
- GI50 [2]: > 100 µM (inactive)
- GI50 [3]: > 100 µM (inactive)
- GI50 [4]: > 100 µM (inactive)
- GI50 [5]: > 100 µM (inactive)
- GI50 [6]: > 100 µM (inactive)
- GI50 [7]: > 100 µM (inactive)
- GI50 [8]: > 100 µM (inactive)
- GI50 [9]: > 100 µM (inactive)
- GI50 [10]: > 100 µM (inactive)
- GI50 [11]: > 100 µM (inactive)
- GI50 [12]: > 100 µM (inactive)
- GI50 [13]: > 100 µM (inactive)
- GI50 [14]: > 100 µM
- GI50 [15]: > 100 µM (inactive)
- GI50 [16]: > 100 µM (inactive)
- GI50 [17]: > 100 µM (inactive)
- GI50 [18]: > 100 µM (inactive)
- GI50 [19]: > 100 µM (inactive)
- GI50 [20]: > 100 µM (inactive)
- GI50 [21]: > 100 µM (inactive)
- GI50 [22]: > 100 µM (inactive)
- GI50 [23]: > 100 µM (inactive)
- GI50 [24]: > 100 µM (inactive)
- GI50 [25]: > 100 µM (inactive)
- GI50 [26]: > 100 µM (inactive)
- GI50 [27]: > 100 µM (inactive)
- GI50 [28]: > 100 µM (inactive)
- GI50 [57]: > 100 µM (inactive)
- GI50 [29]: > 100 µM (inactive)
- GI50 [30]: > 100 µM (inactive)
- GI50 [31]: > 100 µM (inactive)
- GI50 [32]: > 100 µM (inactive)
- GI50 [33]: > 100 µM (inactive)
- GI50 [34]: > 100 µM (inactive)
- GI50 [35]: > 100 µM (inactive)
- GI50 [36]: > 100 µM (inactive)
- GI50 [37]: > 100 µM (inactive)
- GI50 [38]: > 100 µM (inactive)
- GI50 [39]: > 100 µM (inactive)
- GI50 [40]: > 100 µM (inactive)
- GI50 [41]: > 100 µM (inactive)
- GI50 [42]: > 100 µM (inactive)
- GI50 [43]: > 100 µM (inactive)
- GI50 [44]: > 100 µM (inactive)
- GI50 [45]: > 100 µM (inactive)
- GI50 [46]: > 100 µM (inactive)
- GI50 [47]: > 100 µM (inactive)
- GI50 [58]: 88.9 µM (inactive)
- GI50 [48]: > 100 µM (inactive)
- GI50 [49]: > 100 µM (inactive)
- GI50 [50]: > 100 µM (inactive)
- GI50 [51]: > 100 µM (inactive)
- GI50 [52]: > 100 µM (inactive)
- GI50 [53]: > 100 µM (inactive)
- GI50 [54]: > 100 µM (inactive)
- GI50 [55]: > 100 µM (inactive)
- GI50 [56]: > 100 µM (inactive)
